Data from publication PMC8291035 (Biochemical pharmacology, 2021).

Target: ABCB1 (P-glycoprotein, P-gp, MDR1) (Homo sapiens, UniProt P08183)
Assay: cell-based

Chain of ABCB1 (P-glycoprotein, P-gp, MDR1) (P08183 whole entry): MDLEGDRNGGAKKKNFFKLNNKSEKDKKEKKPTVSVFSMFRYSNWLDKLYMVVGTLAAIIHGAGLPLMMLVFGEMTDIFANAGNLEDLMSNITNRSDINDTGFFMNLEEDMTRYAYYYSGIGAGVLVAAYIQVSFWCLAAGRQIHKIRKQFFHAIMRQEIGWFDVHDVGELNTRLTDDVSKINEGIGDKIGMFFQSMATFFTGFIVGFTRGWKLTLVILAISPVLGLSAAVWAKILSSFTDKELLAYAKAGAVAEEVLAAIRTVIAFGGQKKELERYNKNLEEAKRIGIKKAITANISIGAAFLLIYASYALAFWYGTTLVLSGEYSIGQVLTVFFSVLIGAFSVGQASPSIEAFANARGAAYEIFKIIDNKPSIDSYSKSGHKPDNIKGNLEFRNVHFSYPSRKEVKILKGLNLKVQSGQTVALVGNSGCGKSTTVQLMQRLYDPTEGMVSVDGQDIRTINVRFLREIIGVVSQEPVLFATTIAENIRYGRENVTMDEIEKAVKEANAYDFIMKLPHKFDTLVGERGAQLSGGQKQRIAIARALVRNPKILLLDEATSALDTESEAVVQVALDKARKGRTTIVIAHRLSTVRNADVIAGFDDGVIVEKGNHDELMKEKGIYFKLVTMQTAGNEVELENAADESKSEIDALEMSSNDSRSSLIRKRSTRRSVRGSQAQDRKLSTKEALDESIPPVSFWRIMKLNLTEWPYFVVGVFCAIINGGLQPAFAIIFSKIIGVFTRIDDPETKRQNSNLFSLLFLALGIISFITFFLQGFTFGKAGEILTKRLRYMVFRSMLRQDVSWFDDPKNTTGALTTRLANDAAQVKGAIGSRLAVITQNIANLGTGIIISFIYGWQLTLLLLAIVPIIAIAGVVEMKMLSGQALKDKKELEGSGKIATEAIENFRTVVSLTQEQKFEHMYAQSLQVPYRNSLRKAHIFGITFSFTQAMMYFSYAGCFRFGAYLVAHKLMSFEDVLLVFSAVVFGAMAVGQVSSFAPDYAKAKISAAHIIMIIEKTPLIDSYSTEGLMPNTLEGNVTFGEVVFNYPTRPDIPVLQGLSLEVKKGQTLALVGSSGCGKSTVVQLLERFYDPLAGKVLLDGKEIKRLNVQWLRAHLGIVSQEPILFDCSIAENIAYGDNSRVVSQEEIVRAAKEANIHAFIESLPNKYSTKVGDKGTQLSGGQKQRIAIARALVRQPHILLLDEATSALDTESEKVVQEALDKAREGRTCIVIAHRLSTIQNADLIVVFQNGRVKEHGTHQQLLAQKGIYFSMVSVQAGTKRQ

- IC50: ~2000 nM
SMILES: C=CC(=O)Nc1cc(Nc2nccc(-c3cn(C4CC4)c4ccccc34)n2)c(OC)cc1N(C)CCN(C)C [almonertinib]
